Reference: patent publication US20060281791A1, “Methods of increasing proliferation of adult mammalian cardiomyocytes through p38 map kinase inhibition” (CHILDREN'S MEDICAL CENTER CORPORATION, priority 2005, published 2006)

Assays:
p38 MAP kinase = details: cited from earlier work
[1] = system: neonatal (P2) cardiomyocytes; assay: Induction of DNA synthesis (BrdU incorporation) in neonatal cardiomyocytes; type: cell-based, rat; details: BrdU labeling period 24 to 72 hours; harvested after 72 hours; optimal concentration of stimulus
Method: Animal experiments were performed in accordance with guidelines of Children's Hospital, Boston and UCLA. Ventricular cardiomyocytes from fetal (E19), 2-day-old (P2) and adult (250-350 g) Wistar rats (Charles River) were isolated as described with minor modifications (Engel et al. 1999; Engel et al. 2003). After digestion of fetal or neonatal hearts (0.14 mg/ml collagenase II (Invitrogen), 0.55 mg/ml pancreatin (Sigma)) cells were cultured in DMEM/F12 (GIBCO) containing 3 mM Na-pyruvate, 0.2% BSA, 0.1 mM ascorbic acid (Sigma), 0.5% Insulin-Transferrin-Selenium (100×), penicillin (100 U/ml), streptomycin (100 μg/ml), and 2 mM L-glutamine (GIBCO). Adult cardiomyocytes were cultured for 1 day in standard medium (DMEM, 25 mM Hepes, 5 mM taurine, 5 mM creatine, 2 mM L-carnitine (Sigma), 20 U/ml insulin (GIBCO), 0.2% BSA, penicillin (100 U/ml), and streptomycin (100 μg/ml)). Cells were stimulated in culture medium without BSA containing 2 mM L-glutamine. Neonatal and adult cardiomyocytes were initially cultured for 48 h in the presence of 20 μM cytosine β-D-arabinofuranoside (araC, Sigma) and 5% horse serum before stimulation to prevent proliferation of non-myocytes. Adult cardiomyocytes were incubated another 3 days with araC during stimulation. Neonatal cardiomyocytes were stimulated every day with growth factors for BrdU and H3P analyses (FGF1 and NRG-1-1β at 50 ng/ml, IL-1β at 100 ng/ml, R&D Systems, all diluted in 0.1% BSA/PBS). SB203580 and LY294002 (Calbiochem) was added every day. Adult cardiomyocytes were stimulated with fresh medium and SB203580 every 3 days.
Staining was performed as described (Supplemental Table S3) (Engel et al. 1999; Engel et al. 2003). Immune complexes were detected with ALEXA 350, ALEXA 488 or ALEXA 594-conjugated secondary antibodies (1:200, Molecular Probes). DNA was visualised with DAPI (4′,6′-diamidino-2-phenylindole, 0.5 μg/ml, Sigma). For BrdU, cells were cultured in 30 μM BrdU, incubated after permeabilization for 90 min in 2N HCl/1% triton X-100 and washed 3 times in PBS.
Eighteen to 40 hearts of 3 different litters were used for quantitative analyses of maximal areas. For immunofluorescence analyses 1,500 fetal or neonatal cardiomyocytes were counted. For adult cardiomyocyte analyses in vitro the following number of cells were counted: 500-2,000 for BrdU or Ki67, 9,000-25,000 for H3P, and 12,000-45,000 for aurora B. For in vivo MKK3bE and p38α knockout experiments 2 different litters were used. We counted 1,500-2,000 cells in each apex, left and right ventricle per heart. For adult experiments we analyzed 2 p38α^Δ/Δ and 2 p38^lox/lox hearts (24 sections each). Statistical significance was determined using Student's t test.
Several growth factors have a limited capacity to induce DNA synthesis in neonatal cardiomyocytes, including FGF1 (Pasumarthi and Field 2002). We screened 45 extracellular factors at two different concentrations for their ability to induce BrdU incorporation in neonatal (P2) cardiomyocytes. […] We confirmed previous studies showing that FGF1, IL-1β, and NRG-1-β1 are potent growth factors for neonatal cardiomyocytes (Supplemental Table S2) (Pasumarthi and Field 2002 Circ Res 90: 1044-54).
Inhibition of p38 activity by SB203580 increased BrdU incorporation 2.8-fold in neonatal cardiomyocytes stimulated with FGF1 (p<0.01). Similar results were obtained after stimulation with IL-1β and NRG-1-β1. Thus, inhibition of p38 activity augments growth factor-mediated DNA synthesis in neonatal cardiomyocytes.

JNK = details: cited from earlier work
ERK = details: cited from earlier work
[2] = system: LPS-stimulated human peripheral blood monocytes; details: cited from earlier work
[3] = cited from earlier work
[4] = system: myocardial infarction in adult rats; assay: Fractional shortening (echocardiography) after myocardial infarction; type: in vivo, rat
Method: The p38 inhibitors were tested for in vivo effect following myocardial infarct. For the evaluation of left ventricular function, transthoracic echocardiogram can be performed on the rats after myocardial infarction 1 day or 14 days right. Rats can be anesthetized with 4-5% isoflurane in an induction chamber. The chest can be shaved, and the rats can be placed in dorsal decubitus position and intubated for continuous ventilation. 1-2% isoflurane can be continuously supplied via a mask. 3 electrodes can be adhered to their paws to record the electrocardiographic tracing simultaneously with the cardiac image identifying the phase of a cardiac cycle.
Echocardiograms can be performed with a commercially available echocardiography system equipped with 7.5 MHz phased-array transducer (Philips-Hewlett-Packard). The transducer can be positioned on the left anterior side of the chest. Longitudinal images of the heart can be obtained, including the left ventricle, atrium, the mitral valve and the aorta, followed by the cross-sectional images from the plane of the base to the left ventricular apical region. M-mode tracings can be obtained at the level below the tip of the mitral valve leaflets at the level of the papillary muscles. Fractional shorting (FS) can be calculated as a measure of systolic function, according to the M-mode tracing from the cross-sectional view: maximal LV end-diastolic diameter (at the time of maximal cavity dimension), minimal LV end-systolic diameter (at the time of maximum anterior motion of the posterior wall), FS (%)={(LVEDD−LVESD)/LVEDD}×100.
To determine whether p38 inhibition/FGF1 stimulation can induce cardiomyocyte proliferation in vivo and whether it has a positive effect on cardiac function after cardiac injury we created myocardial infarctions (MI) in adult rats (250 g) by coronary artery ligation. The p38 inhibitor SB203580 HCl or its vehicle, saline, were injected intraperitoneal every three days for the first month of the study. FGF1 or its carrier BSA was injected mixed with self-assembling peptides once into the infarct border zone immediately after coronary artery ligation. We injecting a total of 80 μl of 400 ng/ml FGF1, given at 3 different injection sites, into 400 mg of infarcted myocardium estimated to deliver a FGF 1 concentration to the cardiomyocytes of approximately 50 to 100 ng/ml. Animals were analyzed 24 hours, 2 weeks, and 3 month after surgery. We performed two blinded and randomized studies using 62 rats for the 2 week and 61 rats for the 3 month experiment, with at least 10 animals in each experimental group. Animals were treated with saline plus BSA (control), SB203580 HCl plus BSA (p38i), saline plus FGF1 (FGF1), or SB203580 HCl plus FGF1 (p38i/FGF1).
Animal experiments were performed in accordance with guidelines of Children's Hospital in Boston and were approved by the Harvard Medical School Standing Committee on Animals. Myocardial infarction (MI) was produced in ˜250 gm male Sprague-Dawley rats (Charles River and Harlan) as described previously (Hsieh et al., 2006). Briefly, rats were anesthetized by pentobarbital and, following tracheal intubation, the hearts were exposed via left thoracotomy. The left coronary artery was identified after pericardiotomy and was ligated by suturing with 6-0 prolene at the location ˜3mm below the left atrial appendix. For the sham operation, suturing was performed without ligation. […]

CCc1nc(-c2ccc(OC)cc2)[nH]c1-c1ccncc1 [SB202474]
p38 MAP kinase inhibition (in words) (p38 MAP kinase): inactive

TGFβ1
% of BrdU positive neonatal cardiomyoctes [1]: 17.4 ± 2.2%

COc1nccc(-c2c(-c3ccc(F)cc3)ncn2[C@H]2CC[C@H](O)CC2)n1 [SB239063]
selectivity over JNK (JNK): > 200 fold | selectivity over ERK (ERK): > 200 fold | IL-1 and TNF-β production [2]: inhibits | p38 MAP kinase inhibition (in words) (p38 MAP kinase): potent

C[S+]([O-])c1ccc(-c2nc(-c3ccc(F)cc3)c(-c3ccncc3)[nH]2)cc1.Cl (stereo not shown) [SB203580 HCl]
water solubility [3]: water insoluble | improvement of fractional shortening ([4]; 3 month after infarction): maintained | improvement of fractional shortening ([4]; day 14 after infarction): maintained

CNC[C@H](O)c1cccc(O)c1 [PE]
% of BrdU positive neonatal cardiomyoctes [1]: 23.7 ± 3.1%

FGF2
% of BrdU positive neonatal cardiomyoctes [1]: 22.2 ± 1.8%

IL-1β
% of BrdU positive neonatal cardiomyoctes [1]: 41.3 ± 3.2%

B1: FGF17 (protein, UniProt O60258 23-216, looked up)
Fibroblast growth factor 17: TQGENHPSPNFNQYVRDQGAMTDQLSRRQIREYQLYSRTSGKHVQVTGRRISATAEDGNKFAKLIVETDTFGSRVRIKGAESEKYICMNKRGKLIGKPSGKSKDCVFTEIVLENNYTAFQNARHEGWFMAFTRQGRPRQASRSRQNQREAHFIKRLYQGQLPFPNHAEKQKQFEFVGSAPTRRTKRTRRPQPLT
% of BrdU positive neonatal cardiomyoctes [1]: 31.1 ± 1.7%

B2: FGF6 (protein, UniProt P10767 38-208, looked up)
Fibroblast growth factor 6: SPAGTRANNTLLDSRGWGTLLSRSRAGLAGEIAGVNWESGYLVGIKRQRRLYCNVGIGFHLQVLPDGRISGTHEENPYSLLEISTVERGVVSLFGVRSALFVAMNSKGRLYATPSFQEECKFRETLLPNNYNAYESDLYQGTYIALSKYGRVKRGSKVSPIMTVTHFLPRI
% of BrdU positive neonatal cardiomyoctes [1]: 47.3 ± 3.3%

B3: FGF4 (protein, UniProt P08620 31-206, looked up)
Fibroblast growth factor 4: APTAPNGTLEAELERRWESLVALSLARLPVAAQPKEAAVQSGAGDYLLGIKRLRRLYCNVGIGFHLQALPDGRIGGAHADTRDSLLELSPVERGVVSIFGVASRFFVAMSSKGKLYGSPFFTDECTFKEILLPNNYNAYESYKYPGMFIALSKNGKTKKGNRVSPTMKVTHFLPRL
% of BrdU positive neonatal cardiomyoctes [1]: 46.5 ± 3.9%

B4: CT-1 (protein, UniProt Q16619 1-201, looked up)
Cardiotrophin-1: MSRREGSLEDPQTDSSVSLLPHLEAKIRQTHSLAHLLTKYAEQLLQEYVQLQGDPFGLPSFSPPRLPVAGLSAPAPSHAGLPVHERLRLDAAALAALPPLLDAVCRRQAELNPRAPRLLRRLEDAARQARALGAAVEALLAALGAANRGPRAEPPAATASAASATGVFPAKVLGLRVCGLYREWLSRTEGDLGQLLPGGSA
% of BrdU positive neonatal cardiomyoctes [1]: 11.2 ± 1.1%
